Results from publication PMC8206213, “An L-2-hydroxyglutarate biosensor based on specific transcriptional regulator LhgR” (Nature Communications, 2021).
“And” between values parts separate entries of the source, which are not always exact repeats. Equal values may be shown once.

Columns and labels:
[1] = tested on: LHGFR3N7C expressed in E. coli BL21(DE3); assay: Control biosensor LHGFR3N7C expressed in E. coli, response to added compounds; format: cell-based; conditions: Supplementary Fig. 14a
Procedure: (§1) To characterize the sensitivity and specificity of LHGFR expressed in E. coli BL21(DE3), 90 μL cell suspensions following 8 h carbon starvation were mixed with 10 μL increasing concentrations of L-2-HG or other compounds, and then added into a black 96-well plate (total 100 μL/per well), the fluorescence intensities were determined using an EnSight microplate reader (PerkinElmer, USA) and the following instrument settings: excitation at 430 nm, emission at 485 nm (mTFP) and 528 nm (Venus), time intervals of 5 min, the temperature at 37 °C, and shake at 180 rpm.

LHGFR0N3C [2] = assay: Influence of other compounds on the response of purified LHGFR0N3C to L-2-HG; format: binding, Pseudomonas putida W619; conditions: Suppl. Fig. 9a; L-2-HG alone or with the compound; three replicates
Method in brief: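 Purified L-2-HG biosensors were mixed 3:1 with test compounds in 50 mM Tris-HCl pH 7.4, excited at 430 nm, and the 528 nm (Venus)/485 nm (mTFP) emission was read. Responses were fitted with a Hill model giving apparent Kd and Hill slope.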

[3] = tested on: LHGFR0N3C expressed in HEK293FT cells; assay: Specificity of LHGFR0N3C expressed in permeabilized HEK293FT cells, 1 mM compounds; format: cell-based, human (HEK293FT cells); conditions: 1 mM compound, cells permeabilized with 10 μM digitonin, normalized to control
Procedure: To characterize the sensitivity and specificity of LHGFR expressed in HEK293FT cells, cells were trypsinized 48 h following transfection and suspended in 1× Hank’s balanced salt solution supplemented with 20 mM HEPES. […] Digitonin at a concentration of 10 μM was used to induce cell permeabilization and deplete intracellular L-2-HG for in vivo response curves construction. Then, the fluorescence intensities were determined by a SpectraMax i3 fluorescence plate reader (Molecular Devices, USA) with excitation at 430 nm and emission at 485 nm (mTFP) and 528 nm (Venus). Basal L-2-HG concentration in HEK293FT cells under physiological conditions was determined by substituting the emission ratios of non-permeabilized HEK293FT cells into the calibrated in vivo response curves.

LhgR = assay: EMSA, effect of compounds on LhgR binding to the lhgO promoter region F1; parameters: species or system Pseudomonas putida W619; conditions: 50 mM compound, 10 nM F1, 60 nM LhgR
Procedure: Electrophoretic mobility shift assays (EMSAs) were carried out using the DNA fragment (F1 or F2) and purified LhgR. The DNA fragments were first amplified by primer pairs F1-F/F1-R and F2-F/F2-R, respectively. Then, either fragment at a concentration of 10 nM DNA was incubated with LhgR (0–160 nM) in 20 μL EMSA binding buffer (10 mM Tris-HCl [pH 7.4], 50 mM KCl, 0.5 mM EDTA, 10% [vol/vol] glycerol, and 1 mM dithiothreitol [DTT]). The binding reactions were carried out at 30 °C for 30 min. Electrophoresis was performed on 6% native polyacrylamide gels at 4 °C and 170 V (constant voltage) for about 45 min, followed by staining with SYBR green I (TaKaRa, China) and photographing. Analysis of the interaction between lhgO promoter region (F1) and LHGFR was performed using the same procedure.
To characterize the effector of LhgR, purified LhgR was first incubated with L-lysine, 5-aminovalerate, glutarate, L-2-HG, D-2-HG, 2-KG, or succinate at 30 °C for 15 min, followed by incubation with the added DNA fragments at 30 °C for 30 min. The mixtures were subsequently subjected to electrophoresis.

[4] = tested on: LHGFR0N3C expressed in E. coli BL21(DE3); assay: Specificity of LHGFR0N3C expressed in E. coli BL21(DE3), 1 mM compounds; format: cell-based; conditions: for Emission ratio: 1 mM compound, Fig. 5c
Procedure: as §1

LHGFR0N3C [5] = assay: Specificity of purified LHGFR0N3C, emission ratio with 240 μM compounds; format: binding, Pseudomonas putida W619; conditions: 240 μM compound
[6] = tested on: LHGFR0N7C expressed in E. coli BL21(DE3); assay: Specificity of LHGFR0N7C expressed in E. coli BL21(DE3), 1 mM compounds; format: cell-based; conditions: Supplementary Fig. 13c
Procedure: as §1

SMILES: O=C(O)CCCC(=O)O [Glutarate, glutarate]
- normalized emission ratio of control biosensor expressed in E. coli ([1]; time 0 min): 1.008 and 0.9954 and 0.9826 and 0.9922
- normalized emission ratio of control biosensor expressed in E. coli ([1]; time 5 min): 1.009 and 0.9959 and 0.9842 and 0.997
- normalized emission ratio of control biosensor expressed in E. coli ([1]; time 10 min): 1.009 and 0.9912 and 0.9859 and 0.9988
- normalized emission ratio of control biosensor expressed in E. coli ([1]; time 15 min): 1.011 and 0.9845 and 0.9854 and 0.993
- normalized emission ratio of control biosensor expressed in E. coli ([1]; time 20 min): 1.001 (2×) and 0.9957 and 0.9921
- normalized emission ratio of control biosensor expressed in E. coli ([1]; time 25 min): 1.004 and 0.9829 and 0.99 and 1.01
- normalized emission ratio of control biosensor expressed in E. coli ([1]; time 30 min): 1.003 and 0.9825 and 0.992 and 1.008
- normalized emission ratio of control biosensor expressed in E. coli ([1]; time 35 min): 1.004 (2×) and 0.9933 and 1.0123
- normalized emission ratio of control biosensor expressed in E. coli ([1]; time 40 min): 1.001 and 1.002 and 0.9991 and 1.015
- normalized emission ratio of control biosensor expressed in E. coli ([1]; time 45 min): 1.004 and 1.003 and 1.002 and 1.015
- normalized emission ratio of control biosensor expressed in E. coli ([1]; time 50 min): 1.007 and 1.003 and 0.9994 and 1.015
- normalized emission ratio of control biosensor expressed in E. coli ([1]; time 55 min): 1.005 and 0.994 and 1.003 and 1.016
- normalized emission ratio of control biosensor expressed in E. coli ([1]; time 60 min): 1.022 and 0.993 and 1.012 and 1.027
- normalized emission ratio of control biosensor expressed in E. coli ([1]; time 65 min): 1.018 and 1.003 and 1.0048 and 1.024
- normalized emission ratio of control biosensor expressed in E. coli ([1]; time 70 min): 1.018 (2×) and 1.011 and 1.029
- normalized emission ratio of control biosensor expressed in E. coli ([1]; time 75 min): 1.029 and 0.9995 and 1.018 and 1.031
- normalized emission ratio of control biosensor expressed in E. coli ([1]; time 80 min): 1.036 and 1.008 and 1.027 and 1.028
- normalized emission ratio of control biosensor expressed in E. coli ([1]; time 85 min): 1.027 and 1.007 and 1.024 and 1.023
- normalized emission ratio of control biosensor expressed in E. coli ([1]; time 90 min): 1.042 and 1.01 and 1.0199 and 1.034
- Emission ratio (LHGFR0N3C [2]): 2.055 and 2.045 and 2.058
- Normalized emission ratio [3]: 0.9633 and 1.016 and 1.046
- Effect on LhgR binding to the lhgO promoter region F1 (LhgR): observed only in the presence of L-2-HG
- Emission ratio ([4]; 0 min): 1.019 and 1.014 and 1.009
- Emission ratio ([4]; 5 min): 1.014 and 1.015 and 0.998
- Emission ratio ([4]; 10 min): 1.024 and 1.012 (2×)
- Emission ratio ([4]; 15 min): 1.024 and 1.01 and 1.013
- Emission ratio ([4]; 20 min): 1.025 and 1.007 and 1.004
- Emission ratio ([4]; 25 min): 1.02 and 1.008 and 1.012
- Emission ratio ([4]; 30 min): 1.022 and 1.0136 and 1.013
- Emission ratio ([4]; 35 min): 1.0109 and 1.008 and 1.004
- Emission ratio ([4]; 40 min): 1.017 and 1.002 and 1.012
- Emission ratio ([4]; 45 min): 1.022 and 1.0116 and 1.014
- Emission ratio ([4]; 50 min): 1.01 and 1 and 1.016
- Emission ratio ([4]; 55 min): 1.008 and 1.012 and 1.02
- Emission ratio ([4]; 60 min): 1.014 and 1.01 and 1.011
- Emission ratio ([4]; 65 min): 1.021 and 1.007 and 1.017
- Emission ratio ([4]; 70 min): 1.032 and 1.006 and 1.011
- Emission ratio ([4]; 75 min): 1.016 and 1.008 and 1.028
- Emission ratio ([4]; 80 min): 0.9989 and 1.018 and 1.024
- Emission ratio ([4]; 85 min): 1.011 and 1.013 and 1.026
- Emission ratio ([4]; 90 min): 1.005 and 1.016 and 1.027
- Increase of the emission ratio in E. coli BL21(DE3) ([4]; 1 mM exogenous compound): could not
- Emission ratio (LHGFR0N3C [5]): 1.395 and 1.399 and 1.404
- Induction of emission ratio changes (LHGFR0N3C [5]): None
- normalized emission ratio of biosensor expressed in E. coli ([6]; time 0 min): 1.0192 and 1.012 and 1.0143
- normalized emission ratio of biosensor expressed in E. coli ([6]; time 5 min): 1.029 and 1.007 and 0.9939
- normalized emission ratio of biosensor expressed in E. coli ([6]; time 10 min): 1.033 and 1.008 (2×)
- normalized emission ratio of biosensor expressed in E. coli ([6]; time 15 min): 1.028 and 1.024 and 1.005
- normalized emission ratio of biosensor expressed in E. coli ([6]; time 20 min): 1.023 and 1.015 and 1.006
- normalized emission ratio of biosensor expressed in E. coli ([6]; time 25 min): 1.0228 and 1.021 and 1.005
- normalized emission ratio of biosensor expressed in E. coli ([6]; time 30 min): 1.026 and 1.014 and 1.016
- normalized emission ratio of biosensor expressed in E. coli ([6]; time 35 min): 1.019 and 1.016 (2×)
- normalized emission ratio of biosensor expressed in E. coli ([6]; time 40 min): 1.0289 and 1.022 and 1.012
- normalized emission ratio of biosensor expressed in E. coli ([6]; time 45 min): 1.023 and 1.017 and 1.024
- normalized emission ratio of biosensor expressed in E. coli ([6]; time 50 min): 1.027 and 1.014 and 1.019
- normalized emission ratio of biosensor expressed in E. coli ([6]; time 55 min): 1.028 and 1.018 and 1.023
- normalized emission ratio of biosensor expressed in E. coli ([6]; time 60 min): 1.03 and 1.018 and 1.0254
- normalized emission ratio of biosensor expressed in E. coli ([6]; time 65 min): 1.027 and 1.013 and 1.037
- normalized emission ratio of biosensor expressed in E. coli ([6]; time 70 min): 1.027 and 1.018 and 1.0281
- normalized emission ratio of biosensor expressed in E. coli ([6]; time 75 min): 1.034 and 1.022 and 1.035
- normalized emission ratio of biosensor expressed in E. coli ([6]; time 80 min): 1.0287 and 1.026 and 1.039
- normalized emission ratio of biosensor expressed in E. coli ([6]; time 85 min): 1.03 and 1.021 and 1.038
- normalized emission ratio of biosensor expressed in E. coli ([6]; time 90 min): 1.036 and 1.0239 and 1.043
